Five compounds from ChEMBL document CHEMBL1201862, “PubChem BioAssay data set” (2004) can be followed below.

The source made the active and inactive calls. For most assays here, no stated cut-off is given here; in the data, actives have a measured EC50 and inactives only a lower limit. Bounds are passed on as bounds.

Assay [1] addresses T1, Protein RecA (Mycobacterium tuberculosis, UniProt P9WHJ3).
T1 sequence (P9WHJ3 whole entry): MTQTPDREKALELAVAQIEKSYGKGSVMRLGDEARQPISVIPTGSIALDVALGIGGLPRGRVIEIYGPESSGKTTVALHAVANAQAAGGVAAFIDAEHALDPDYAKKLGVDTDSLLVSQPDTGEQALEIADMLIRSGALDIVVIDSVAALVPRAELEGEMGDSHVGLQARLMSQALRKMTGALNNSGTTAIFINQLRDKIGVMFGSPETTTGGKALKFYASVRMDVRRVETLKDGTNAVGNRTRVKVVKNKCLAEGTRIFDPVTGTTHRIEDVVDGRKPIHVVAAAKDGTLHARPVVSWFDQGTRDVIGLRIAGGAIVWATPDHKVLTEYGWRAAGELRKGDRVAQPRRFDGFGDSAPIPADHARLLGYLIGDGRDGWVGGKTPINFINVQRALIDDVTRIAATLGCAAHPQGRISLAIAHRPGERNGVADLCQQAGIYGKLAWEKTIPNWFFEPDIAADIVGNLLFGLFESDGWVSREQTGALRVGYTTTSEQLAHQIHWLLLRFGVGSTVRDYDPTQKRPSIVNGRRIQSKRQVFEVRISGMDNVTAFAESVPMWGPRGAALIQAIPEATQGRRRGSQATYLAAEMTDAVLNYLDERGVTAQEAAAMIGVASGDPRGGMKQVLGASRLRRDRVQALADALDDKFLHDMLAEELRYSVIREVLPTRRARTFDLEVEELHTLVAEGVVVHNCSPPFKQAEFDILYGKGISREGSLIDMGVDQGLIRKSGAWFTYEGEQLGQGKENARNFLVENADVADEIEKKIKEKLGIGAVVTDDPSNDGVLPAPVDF
Kind of assay: Fluorescence Cell-Free Homogeneous Dose Retest to Identify Inhibitors of RecA-Intein Splicing Activity. [Related pubchem assays (depositor defined):AID2097, AID2223, AID489010, AID492950]. Format: functional.

The target in assay [2] is T2, Apoptotic protease-activating factor 1 (Homo sapiens, UniProt O14727).
T2 sequence (O14727 whole entry): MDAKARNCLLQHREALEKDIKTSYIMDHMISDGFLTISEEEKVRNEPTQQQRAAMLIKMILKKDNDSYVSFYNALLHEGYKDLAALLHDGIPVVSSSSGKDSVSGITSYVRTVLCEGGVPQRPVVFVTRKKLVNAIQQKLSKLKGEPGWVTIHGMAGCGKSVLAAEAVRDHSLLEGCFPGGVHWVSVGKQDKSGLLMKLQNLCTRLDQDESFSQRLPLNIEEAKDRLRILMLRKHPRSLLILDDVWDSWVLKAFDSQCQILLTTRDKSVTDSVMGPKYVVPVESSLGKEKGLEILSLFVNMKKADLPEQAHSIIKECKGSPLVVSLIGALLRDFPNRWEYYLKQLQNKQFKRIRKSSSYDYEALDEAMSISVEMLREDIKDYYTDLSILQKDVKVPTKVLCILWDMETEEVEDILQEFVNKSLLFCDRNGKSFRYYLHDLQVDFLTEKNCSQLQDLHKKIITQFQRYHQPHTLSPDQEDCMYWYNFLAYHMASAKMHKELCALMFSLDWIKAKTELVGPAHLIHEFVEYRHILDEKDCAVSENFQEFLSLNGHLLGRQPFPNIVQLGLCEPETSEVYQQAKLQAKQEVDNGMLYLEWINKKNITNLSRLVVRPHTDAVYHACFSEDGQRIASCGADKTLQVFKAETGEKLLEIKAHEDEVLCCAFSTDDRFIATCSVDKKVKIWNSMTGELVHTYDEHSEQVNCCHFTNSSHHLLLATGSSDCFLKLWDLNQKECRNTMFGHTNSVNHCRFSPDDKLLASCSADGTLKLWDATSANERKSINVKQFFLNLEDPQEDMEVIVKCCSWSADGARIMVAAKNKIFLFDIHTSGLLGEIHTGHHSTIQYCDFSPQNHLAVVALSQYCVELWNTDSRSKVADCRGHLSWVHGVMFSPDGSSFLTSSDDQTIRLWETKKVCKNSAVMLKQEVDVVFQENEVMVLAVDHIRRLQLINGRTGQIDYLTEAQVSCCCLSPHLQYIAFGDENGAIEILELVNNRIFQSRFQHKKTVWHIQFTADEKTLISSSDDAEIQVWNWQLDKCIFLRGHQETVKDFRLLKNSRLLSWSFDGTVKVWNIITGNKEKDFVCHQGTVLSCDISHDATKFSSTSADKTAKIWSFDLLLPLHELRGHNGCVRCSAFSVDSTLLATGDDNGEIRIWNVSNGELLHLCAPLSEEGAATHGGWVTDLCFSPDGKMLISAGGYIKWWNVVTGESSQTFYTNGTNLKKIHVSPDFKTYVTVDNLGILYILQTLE
The format is functional.

Assay [3] has as its target T3, Replicative DNA helicase DnaB (Mycobacterium tuberculosis, UniProt P9WMR3).
T3 sequence (P9WMR3 whole entry): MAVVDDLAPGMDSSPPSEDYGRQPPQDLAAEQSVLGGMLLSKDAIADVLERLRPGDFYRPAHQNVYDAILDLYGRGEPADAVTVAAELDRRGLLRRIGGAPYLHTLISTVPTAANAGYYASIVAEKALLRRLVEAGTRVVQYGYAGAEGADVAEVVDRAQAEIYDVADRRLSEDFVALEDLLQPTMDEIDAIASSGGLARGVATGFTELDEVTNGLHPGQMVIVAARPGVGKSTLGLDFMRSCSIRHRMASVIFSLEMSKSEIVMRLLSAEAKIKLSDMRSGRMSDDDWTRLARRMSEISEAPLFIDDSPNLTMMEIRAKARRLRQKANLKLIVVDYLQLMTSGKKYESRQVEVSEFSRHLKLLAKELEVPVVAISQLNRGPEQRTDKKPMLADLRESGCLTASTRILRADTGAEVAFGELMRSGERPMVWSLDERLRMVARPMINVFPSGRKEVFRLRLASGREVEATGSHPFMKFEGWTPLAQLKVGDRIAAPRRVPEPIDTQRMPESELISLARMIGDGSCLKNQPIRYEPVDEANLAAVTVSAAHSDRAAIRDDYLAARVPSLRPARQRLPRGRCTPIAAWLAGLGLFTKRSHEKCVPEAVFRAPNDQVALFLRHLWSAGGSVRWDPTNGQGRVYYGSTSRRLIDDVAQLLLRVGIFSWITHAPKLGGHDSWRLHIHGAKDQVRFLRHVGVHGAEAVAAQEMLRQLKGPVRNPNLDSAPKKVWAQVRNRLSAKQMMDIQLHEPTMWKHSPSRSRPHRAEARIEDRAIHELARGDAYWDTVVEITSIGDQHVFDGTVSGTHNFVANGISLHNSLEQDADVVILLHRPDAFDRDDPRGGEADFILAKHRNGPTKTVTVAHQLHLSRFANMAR
In words: DnaB intein splicing inhibitors, dose response, biochemical, cell-free fluorescence (AID 449749). The format is functional.

Assay [4] can be described thus: NIH-3T3 fibroblast cytotoxicity, dose response, cytotoxicity control, cell-based, fluorescence, Alamar Blue, secondary assay (AID 2327).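 Further: NIH-3T3 mouse fibroblasts cultured with fluconazole at 8 µg/mL.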 The format is functional.
A short description of assay [5]: C. albicans growth with fluconazole, confirmation, fluorescence, retest (AID 2467). The format is functional, cell-based.

As for `COc1ccc(-n2c3nc4ccccc4nc3c3c(=N)oc(C)nc32)cc1`, in assay [1], the EC50 was > 380 µM (inactive). Besides, in assay [2], the IC50 is 19.1 µM (active). For the same compound, the AC50 in assay [3] is > 120 µM (inactive).

Turning to `O=C(/C=C/c1cccs1)NC(=S)NNC(=O)c1ccccc1O`, the EC50 in assay [4] is 35.5 µM (active); in assay [5], > 38 µM (not active).

Consider `O=C(N/N=C1\C/C(=N\NC(=O)c2ccncc2)c2ccccc21)c1ccncc1`, for which the EC50 in assay [1] is 0.732 µM (active). Further, the IC50 in assay [2] was 12.8 µM (active). For the same compound, in assay [3], the AC50 is 6.09 µM (active).

Turning to `CC(=O)N(Cc1ccc(F)cc1)C1=C(NCCc2ccccc2)C(=O)c2ccccc2C1=O`, the EC50 is 9.84 µM (inconclusive) in assay [4], 0.785 µM (active) in assay [5] and 1.42 µM (active) in assay [1]. In assay [2], the IC50 is 7.39 µM (active). Moreover, the AC50 in assay [3] was 4.93 µM (active).

In the case of `CCCCC(=O)NC(c1ccccc1)c1ccc2cccnc2c1O` (stereo not given), the figures for the EC50 in assay [4] and in assay [5] were 19.9 µM (inconclusive) and 0.569 µM (active), respectively.
